Measurements from US20030212061A1, “Aza-thioxanthenones with antitumor activity” (priority 2002, published 2003).

test system: HeLa S-3 cells; experiment: Inhibition of cell growth (GI50), sulforhodamine B staining; format: cell-based; conditions: GI50 of carbocyclic congener versus GI50 of aza-analog, HeLa cells
Method: Growth inhibition (GI50) values were measured with HeLa S-3 cells selected for growth on plastic. The procedure was based on the protocol of Skehan et al. (Skehan, P., et al., J. Natl. Cancer Inst., 82:1107-1112 (1990), which is hereby incorporated by reference) HeLa cells were plated at 2×10^4 cells/well in 96 well plates. One day later, a control plate was fixed by addition of TCA to 5%. After five rinses with tap water, the plate was air dried and stored at 4° C. Test compounds were added to the remaining plates at 10-fold dilutions between 0.01 and 100 μM. Two days later, all plates were fixed as described above. Cells were then stained by the addition of 100 μl per well of 0.4% sulforhodamine B (SRB) in 1% acetic acid for 30 min at 4° C. Wells were then quickly rinsed 5×with acetic acid (1%) and allowed to air dry. The SRB was then solubilized by the addition of 100 μl per well of unbuffered 10 mM Tris base. Dye was quantified by measuring absorbance at 490 nm on a Molecular Devices kinetic microplate reader. Growth at each inhibitor concentration relative to the untreated control was calculated according to the following equation: percent growth=100×(T−To)/(C−To), where T was the average optical density (OD) of the test wells after 2 days of treatment, To was the average OD of the wells in the control plate on day 0 and C was the average OD of untreated wells. Plots of percent growth versus inhibitor concentration were used to determine the GI50.
The data below shown in Table 4 summarizes the in vitro growth inhibition constants (GI50) of HeLa Cells for the compounds of the current invention.
GI50 is the concentration of the compound that causes a 50 percent inhibition of tumor cell growth

Compound	Folds Improvements
CCN(CC)CCNc1cccc2sc3ccncc3c(=O)c12 [drawing 98]	3.5
CCN(CC)CCNc1ccc(CNC=O)c2sc3ccncc3c(=O)c12 [drawing 100]	3
CCN(CC)CCNc1ccc(CN)c2sc3ccncc3c(=O)c12 [drawing 102]	1
CCN(CC)CCNc1ccc(CNS(C)(=O)=O)c2sc3ccncc3c(=O)c12 [drawing 104]	7.5
CCN(CC)CCNc1ccc(CNS(C)(=O)=O)c2sc3ccncc3c(=O)c12 [drawing 106]	10

same assay, conditions: HeLa cells, Table 5, aza-analog; read-out: GI50 (Aza-Analog)

GI50 [nM]	Compound
300	CCN(CC)CCNc1ccc(CNS(C)(=O)=O)c2sc3ccncc3c(=O)c12 [drawing 106]

same assay, conditions: Homo sapiens, HeLa S3, 48 h, HeLa cells, 2 days of treatment, Table 4; read-out: GI50 Activity

GI50 [nM]	Compound
2000	CCN(CC)CCNc1ccc(C=O)c2sc3ccccc3c(=O)c12
> 10000	CCN(CC)CCN(C)c1ccc2c(=O)c3cnccc3sc2c1
300	CCN(CC)CCNc1ccc(CNC(=O)OC)c2sc3ccncc3c(=O)c12
1000	CCN(CC)CCn1nc2c3c(cccc31)Sc1ccncc1-2
100	CCN(CC)CCn1nc2c3c(c(CNC(=O)OC)ccc31)Sc1ccncc1-2
> 10000	CCN(CC)CCN(N)c1ccc2c(=O)c3cnccc3sc2c1
200	CCN(CC)CCn1nc2c3c(c(CNC=O)ccc31)Sc1ccncc1-2
200	CCN(CC)CCn1nc2c3c(c(CN)ccc31)Sc1ccncc1-2
9000	CCN(CC)CCn1nc2c3c(cccc31)Sc1ccccc1-2
2000	CCN(CC)CCn1nc2c3c(c(C=O)ccc31)Sc1ccccc1-2
1000	CCN(CC)CCn1nc2c3c(c(CNC=O)ccc31)Sc1ccccc1-2
1000	CCN(CC)CCn1nc2c3c(c(CN)ccc31)Sc1ccccc1-2
900	CCN(CC)CCn1nc2c3c(c(CNS(C)(=O)=O)ccc31)Sc1ccccc1-2
3000	CCN(CC)CCn1nc2c3c(c(CNC(=O)OC)ccc31)Sc1ccccc1-2
> 10000	CCN(CC)CCNc1cccc2sc3ccccc3c(=O)c12 [drawing 74]
3000	CCN(CC)CCNc1ccc(CNC=O)c2sc3ccccc3c(=O)c12 [drawing 76]
600	CCN(CC)CCNc1ccc(CN)c2sc3ccccc3c(=O)c12 [drawing 77]
3000	CCN(CC)CCNc1ccc(CNS(C)(=O)=O)c2sc3ccccc3c(=O)c12 [drawing 78]
3000	CCN(CC)CCNc1ccc(CNC(=O)OC)c2sc3ccccc3c(=O)c12 [drawing 79]
3000	CCN(CC)CCNc1cccc2sc3ccncc3c(=O)c12 [drawing 81]
1000	CCN(CC)CCNc1ccc(CNC=O)c2sc3ccncc3c(=O)c12 [drawing 82]
700	CCN(CC)CCNc1ccc(CN)c2sc3ccncc3c(=O)c12 [drawing 83]
400	CCN(CC)CCNc1ccc(CNS(C)(=O)=O)c2sc3ccncc3c(=O)c12 [drawing 84]

same assay, conditions: Homo sapiens, HeLa S3, HeLa cells, Table 5, aza-analog; read-out: GI50 (Aza-Analog)

GI50 [nM]	Compound
3000	CCN(CC)CCNc1cccc2sc3ccncc3c(=O)c12 [drawing 98]
1000	CCN(CC)CCNc1ccc(CNC=O)c2sc3ccncc3c(=O)c12 [drawing 100]
700	CCN(CC)CCNc1ccc(CN)c2sc3ccncc3c(=O)c12 [drawing 102]
400	CCN(CC)CCNc1ccc(CNS(C)(=O)=O)c2sc3ccncc3c(=O)c12 [drawing 104]

same assay, conditions: Homo sapiens, HeLa S3, HeLa cells, Table 5, carbocyclic congener; read-out: GI50 (Carbocic Congener)

GI50 [nM]	Compound
> 10000	CCN(CC)CCNc1cccc2sc3ccccc3c(=O)c12 [drawing 97, reference compound]
3000	CCN(CC)CCNc1ccc(CNC=O)c2sc3ccccc3c(=O)c12 [drawing 99, reference compound]
600	CCN(CC)CCNc1ccc(CN)c2sc3ccccc3c(=O)c12 [drawing 101, reference compound]
3000	CCN(CC)CCNc1ccc(CNS(C)(=O)=O)c2sc3ccccc3c(=O)c12 [drawing 103, reference compound]
3000	CCN(CC)CCNc1ccc(CNC(=O)OC)c2sc3ccccc3c(=O)c12 [drawing 105, reference compound]

test system: murine leukemia (L1210) and P388 leukemia cells; experiment: not given; conditions: in vitro L1210 and in vivo P388; cited from earlier work

Compound	assessment as a potential antitumor agent
CN(C)CCNC(=O)c1cccc2c(=O)c3ccccc3sc12.Cl [N-[2-(dimethylamino)ethyl-]-9-oxo-9H-thioxanthene-4-carboxamide monohydrochloride]	unlikely to worth pursuing
